Laboratory results published in ChEMBL document CHEMBL1144712, “Structure-guided design of C2-symmetric HIV-1 protease inhibitors based on a pyrrolidine scaffold” (J Med Chem, 2008).

molecular target: Protease (Human immunodeficiency virus 1, UniProt Q9YQ12); assay: Inhibition of HIV1 recombinant protease expressed in Escherichia coli
Sequence (Q9YQ12 whole entry): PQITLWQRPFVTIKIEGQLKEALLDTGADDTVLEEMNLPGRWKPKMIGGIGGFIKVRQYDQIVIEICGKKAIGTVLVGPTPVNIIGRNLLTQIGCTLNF

| Ki [nM] | SMILES |
| --- | --- |
| 1720 | O=[N+]([O-])c1ccc(S(=O)(=O)N(Cc2ccccc2)[C@H]2CNC[C@@H]2N(Cc2ccccc2)S(=O)(=O)c2ccc([N+](=O)[O-])cc2)cc1 |
| 670 | Cc1ccccc1S(=O)(=O)N(Cc1ccccc1)[C@H]1CNC[C@@H]1N(Cc1ccccc1)S(=O)(=O)c1ccccc1C |
| 460 | O=S(=O)(c1ccccc1)N(Cc1ccc(Br)cc1)[C@H]1CNC[C@@H]1N(Cc1ccc(Br)cc1)S(=O)(=O)c1ccccc1 |
| 12300 | C=CCN([C@H]1CNC[C@@H]1N(CC=C)S(=O)(=O)c1ccccc1)S(=O)(=O)c1ccccc1 |
| 74700 | C=C(C)CN([C@H]1CNC[C@@H]1N(CC(=C)C)S(=O)(=O)c1ccccc1)S(=O)(=O)c1ccccc1 |
| 1570 | CC(C)=CCN([C@H]1CNC[C@@H]1N(CC=C(C)C)S(=O)(=O)c1ccccc1)S(=O)(=O)c1ccccc1 |
| 800 | O=S(=O)(c1ccccc1)N(Cc1ccc(C(F)(F)F)cc1)[C@H]1CNC[C@@H]1N(Cc1ccc(C(F)(F)F)cc1)S(=O)(=O)c1ccccc1 |
